Laboratory results from patent US20220142888A1, “COMPOSITION FOR IMPROVING SKIN CONDITIONS” (NEOPHARM CO., LTD., priority 2020, published 2022).

What was measured:
[1] = test system: LL-37 (cathelicidin-related antimicrobial peptide (CAMP)); assay: Expression of antimicrobial peptide LL-37 in human epidermal keratinocytes, real-time PCR; format: cell-based; conditions: NHEKs, 1% sample (in H2O), 24 hours, gene level, FIG. 1
Procedure: (§1) In order to confirm the effect of enhancing the skin immunity and defense of each of Examples and Comparative Example of the present invention, the activities of peptide LL-37 (cathelicidin-related antimicrobial peptide (CAMP)), human β-defensin-2 (hBD-2), and human β-defensin-3 (hBD-3) having antimicrobial efficacy were confirmed.
(§2) In order for the confirmation, human epidermal keratinocytes (NHEKs) were dispensed into a 96-well plate, and the cells were cultured under cell culture conditions for 24 hours. Thereafter, the cells were treated with a control, DMSO, and a 1% sample (in H2O) of each of Examples and Comparative Example, and the cells were additionally cultured for 24 hours. A real-time PCR method was performed to determine LL-37, BD-2, and BD-3 at a gene-level. The test procedure is as follows.
(§3) SuperPrep™ cell lysis and RT Kit for qPCR (TOYOBO, SCQ-101) were used for RNA isolation and cDNA synthesis. The cells from which the medium was removed were washed once with phosphate-buffered saline (PBS), 50 μl of a cell lysis mixture (including gDNA remover) was added and reacted for 5 minutes, and then, a stop solution was added. […] QuantiTect primer assays of Qiagen were used in the experiment as a primer, and the expression levels of LL-37, BD-2, and BD-3 in the samples were quantified as GADPH and compared with each other. […]

[2] = test system: human β-defensin-3 (hBD-3); assay: Expression of antimicrobial peptide BD-3 in human epidermal keratinocytes, real-time PCR; format: cell-based; conditions: NHEKs, 1% sample (in H2O), 24 hours, gene level, FIG. 3
Procedure: as §1, §2, §3

[3] = test system: human β-defensin-2 (hBD-2); assay: Expression of antimicrobial peptide BD-2 in human epidermal keratinocytes, real-time PCR; format: cell-based; conditions: NHEKs, 1% sample (in H2O), 24 hours, gene level, FIG. 2
Procedure: as §1, §2, §3

desmoglein1 (DSG1) gene = assay: Expression of desmoglein1 (DSG1) gene in UVB-irradiated NHEKs, Taqman real-time PCR; format: cell-based, human; conditions: UVB 25 mJ/cm^2, 10 nM sample, 4th day of culture, FIG. 6
Procedure: In order to confirm the effect of strengthening the skin barrier of each of Examples and Comparative Example of the present invention, an expression level of DSG1 gene as an intercellular binding factor was confirmed.
Specifically, normal human epidermal keratinocytes (NHEKs) were cultured in a 6-well plate incubator. After 24 hours, the keratinocyes were washed with phosphate-buffered saline (PBS), irradiation with UVB (25 mJ/cm^2) was performed, a 10 nM sample of each of Examples and Comparative Example was added to the NHEK culture medium, and then, culture was performed. The cells were harvested on the 4th day of culture, RNA was separated, cDNA was synthesized by a reverse transcriptional polymerase chain reaction (RT-PCR), Taqman real-time PCR was performed using the synthesized cDNA, and then, the expression level of the DSG1 gene as a keratinocyte differentiation marker was measured.

filaggrin = assay: Expression level of filaggrin in keratinocytes, real-time PCR; format: cell-based; conditions: 24 hours, versus untreated control, FIG. 5
Procedure: In order to measure the effect of promoting the expression of moisturizing factors of each of Examples and Comparative Example of the present invention, the expression levels of filaggrin and loricrin were measured.
Specifically, keratinocytes purchased from Invitrogen Corporation were cultured in EpiLife (keratinocyte growth medium) containing a supplement (human keratinocyte growth supplement (HKGS)) for a predetermined time, and then, the cells were subcultured three times and then used. The keratinocytes which were subcultured three times were cultured to a confluence of 70 to 80% in a 6-well plate, each of the wells was separately treated with each of the samples, and then, the keratinocytes were cultured for a total of 24 hours. RNA of the keratinocytes was extracted from the cultured cells using easy BLUE, and then, cDNA synthesis was performed using SuperScript reverse transcriptase III kit. Real-time PCR for comparing the genes was performed using 2× TaqMan universal PCR mixture (10 μl), 20× TaqMan expression assay mix (1 μl), cDNA (50 ng), and a primer (Filaggrin: Hs00856927_g1*, Loricrin: Hs01894962_s1*) and a 7500 Fast Real-Time PCR system. In addition, a sample treated with 10 μM IGF-1 was used as a positive control group, and a control that was not treated with the sample was used as a comparison group.

Row | Structure (SMILES) | expression level of antimicrobial peptide LL-37 relative to that in Example 2 [1] | expression level of antimicrobial peptide BD-3 relative to that in Example 2 [2] | expression level of antimicrobial peptide BD-2 relative to that in Example 2 [3] | expression level of desmoglein1, increase relative to the expression level in the UVB treatment group (desmoglein1 (DSG1) gene) | expression level of filaggrin, increase relative to the expression level in the control (filaggrin)
1 | CCCCCC(=O)N[C@@H](Cc1ccc(O)cc1)C(=O)OC [Comparative Example 1, Defensamide] | 40% | 40% | 33% |  | 
2 | CCCCCCCCCC(=O)NC(CO)C(=O)OCC (stereo not shown) [Example 1, N-(1-oxodecyl)serine ethyl ester] |  |  |  | ≥ 4.1 times | ≥ 4.3 times
3 | CCCCCCCCCC(=O)NC(CO)C(=O)OC (stereo not shown) [Example 2, N-(1-oxodecyl)serine methyl ester] |  |  |  | ≥ 4.5 times | ≥ 3.8 times
